Measurements as given in PMC10285648, “iTAG an optimized IMiD-induced degron for targeted protein degradation in human and murine cells” (iScience, 2023).

Columns and labels:
cMYC-EGFP-DCD19 = assay: Flow cytometry of EGFP signal, cMYC-EGFP-DCD19 in HMEC; assay type: cell-based, human; conditions: 10uM, 4h
Excerpt: (§1) To systematically delineate the optimal DCD/degrader combination for targeted protein degradation, we undertook a matrix approach evaluating all 23 DCD tags against 6 small molecule degraders. […] To control for any potential off-target effects of the IMiD/CeLMOD agents that could indirectly affect the target of interest, we designed controls in which the specific DCD and the EGFP sequences were interspaced by a P2A ribosomal “skipping” sequence,[32] leading to separate translation of the DCD and the target protein (Figure 1A). These constructs were then inserted into a doxycycline-inducible lentiviral vector system and stably expressed in hTERT immortalized human mammary epithelial cells (HMEC), a suitable model to assess the functional consequences of cMYC degradation. cMYC was tagged at the C-terminus end for the initial screening experiments.
(§2) Figure 1 Design and experimental evaluation of the DCD tags (A) Representation of the experimental pipeline used to evaluate the different DCD constructs. […] Median EGFP intensity was measured in each condition using flow cytometry (3 independent experiments, normalized to the control and represented as mean ± SD). […] The protein lysates were probed for cMYC levels using western blotting. […] Target loss was evaluated either by measuring EGFP median intensity using flow cytometry or western blotting for cMYC protein (3 independent experiments, normalized to the control and represented as mean ± SD). […] Target loss was evaluated as in (D) (3 independent experiments, normalized to the control and represented as mean ± SD). […] Protein lysates were collected and probed for cMYC and p21 using western blotting. […] Protein lysates were collected and probed for cMYC and p21 using western blotting. […] These were left out as controls with no test substance.
(§3) Following degrader treatment cells were collected and DAPI was added to the cell suspension at 1 μg/mL to allow the exclusion of dead cells. EGFP signal was measured using BD LSR II flow cytometer (BD Biosciences). FlowJo 10 Software (FlowJo) was used for data processing.

CRBN/DDB1 complex = biological target: T1, CRBN/DDB1 complex (Homo sapiens, UniProt Q96SW2); assay: IMiD-based fluorescence polarisation assay; assay type: binding; conditions: displacement of Sulfo-Cy5 IMiD probe (5 nM), 80 nM CRBN/DDB1; read-out: FP IC50
T1 construct: WT full length CRBN/DDB1 complex was added; made in house; host or cells: Sf9 insect cells (baculovirus)
T1 sequence (Q96SW2 whole entry): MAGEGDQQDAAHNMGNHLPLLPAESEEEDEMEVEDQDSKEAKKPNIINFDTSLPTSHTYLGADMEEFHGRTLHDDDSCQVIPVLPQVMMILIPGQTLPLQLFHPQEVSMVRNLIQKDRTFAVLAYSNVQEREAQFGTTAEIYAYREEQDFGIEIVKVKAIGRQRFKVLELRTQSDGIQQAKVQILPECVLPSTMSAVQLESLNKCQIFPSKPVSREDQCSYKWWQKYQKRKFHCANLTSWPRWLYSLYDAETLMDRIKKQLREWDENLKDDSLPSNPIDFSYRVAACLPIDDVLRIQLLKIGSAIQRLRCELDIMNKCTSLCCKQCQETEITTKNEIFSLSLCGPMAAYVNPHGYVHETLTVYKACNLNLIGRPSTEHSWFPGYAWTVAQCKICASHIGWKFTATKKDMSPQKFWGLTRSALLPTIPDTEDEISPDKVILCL
T1 sequence (Q16531 whole entry partner): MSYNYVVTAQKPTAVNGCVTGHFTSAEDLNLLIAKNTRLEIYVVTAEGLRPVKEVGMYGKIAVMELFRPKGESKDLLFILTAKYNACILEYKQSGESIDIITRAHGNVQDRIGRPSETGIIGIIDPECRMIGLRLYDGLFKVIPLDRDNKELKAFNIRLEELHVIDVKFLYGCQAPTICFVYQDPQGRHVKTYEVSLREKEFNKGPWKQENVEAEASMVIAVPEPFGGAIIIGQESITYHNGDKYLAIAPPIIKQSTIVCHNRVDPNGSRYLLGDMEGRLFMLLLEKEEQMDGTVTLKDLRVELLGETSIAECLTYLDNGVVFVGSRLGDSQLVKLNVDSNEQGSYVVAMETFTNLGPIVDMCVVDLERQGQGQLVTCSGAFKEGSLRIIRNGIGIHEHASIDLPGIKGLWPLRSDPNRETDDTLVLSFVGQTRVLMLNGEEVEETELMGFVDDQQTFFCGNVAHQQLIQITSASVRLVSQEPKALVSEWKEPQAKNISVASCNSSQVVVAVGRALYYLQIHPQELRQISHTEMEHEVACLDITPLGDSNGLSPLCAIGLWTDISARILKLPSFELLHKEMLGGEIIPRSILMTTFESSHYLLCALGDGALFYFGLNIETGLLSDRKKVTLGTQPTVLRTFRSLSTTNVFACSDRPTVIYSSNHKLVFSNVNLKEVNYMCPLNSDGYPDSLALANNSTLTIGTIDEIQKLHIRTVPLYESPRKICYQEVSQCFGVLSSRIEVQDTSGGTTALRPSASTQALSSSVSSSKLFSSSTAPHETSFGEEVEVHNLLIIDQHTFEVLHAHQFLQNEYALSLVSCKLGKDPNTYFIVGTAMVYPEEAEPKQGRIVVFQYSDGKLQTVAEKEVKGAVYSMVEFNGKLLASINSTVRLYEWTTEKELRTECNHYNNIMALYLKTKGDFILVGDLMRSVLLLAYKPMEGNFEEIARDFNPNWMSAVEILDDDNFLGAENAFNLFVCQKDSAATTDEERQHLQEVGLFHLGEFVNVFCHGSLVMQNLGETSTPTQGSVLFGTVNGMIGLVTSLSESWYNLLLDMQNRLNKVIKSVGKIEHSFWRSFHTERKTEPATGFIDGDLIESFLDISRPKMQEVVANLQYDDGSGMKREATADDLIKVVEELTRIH
Procedure: First, we wanted to confirm that the IMiD/CELMoDs used in our study were effectively binding to CRBN and to estimate their binding affinities. […] WT full length CRBN/DDB1 complex was added with a Tempest liquid handler (Formulatrix, USA) to all wells to a final concentration of 80 nM, except for low controls where WT CRBN was substituted with mutant [MUT]-[MUT] CRBN (mutant unable to bind the probe). The Echo was also used to add 5 nM final concentration of Sulfo-Cy5 fluorescent IMiD-based probe (Figure S6A) to each well. Plates were sealed, centrifuged at 200 g for 1 min and stored overnight at 4°C. Fluorescence Polarization and total fluorescence were read using a PHERAstar FSX plate reader (BMG Labtech, Germany).

cMYC-EGFP-DCD23 = assay: Degradation of cMYC-EGFP-DCD23 in HMEC (flow cytometry, western blotting); assay type: cell-based, human; conditions: EGFP cellular degradation data for the DCD23, related to Figure 1 (10uM, 4h)
Excerpt: as §1, §2, §3
Cells were lysed with SDS lysis buffer (2% SDS, 10% Glycerol, 50mM Tris pH 6.8) and boiled at 95°C for 30min. Protein concentration was measured using Pierce BCA Protein Assay Kit (ThermoFischer) following manufacturer’s recommendations. Samples were ran in NuPAGETM 10% Bis-Tris Midi electrophoresis gels (Invitrogen) using NuPAGETM MES SDS running buffer (ThermoFischer Scientific).
For western blotting membranes were blocked in a solution of 5% (w/v) bovine serum albumin (BSA; Sigma-Aldrich) dissolved in TBS-0.1% Tween 20 (Sigma-Aldrich) then incubated at 4°C overnight with the primary antibodies diluted in 5% (w/v) BSA/TBS-T. The membranes where then washed and incubated with anti-mouse and/or anti-rabbit secondary antibodies (LI-COR Biosciences) for 2h at RT diluted in 5% (w/v) BSA/TBS-T then washed and imaged using the LI-COR Odyssey (LI-COR Biosciences). Images were analyzed using Image Studio Lite software (LI-COR Biosciences).

cMYC-EGFP-DCD2 = assay: Flow cytometry of EGFP signal, cMYC-EGFP-DCD2 in HMEC; assay type: cell-based, human; conditions: 10uM, 4h
Excerpt: To systematically delineate the optimal DCD/degrader combination for targeted protein degradation, we undertook a matrix approach evaluating all 23 DCD tags against 6 small molecule degraders. First, we fused the DCD tags with Enhanced Green Fluorescent Protein (EGFP) and a target protein of interest, focusing initially on the proto-oncogene cMYC (Figure 1A). cMYC function has been extensively studied and downstream perturbations of cMYC loss are well characterised,[29]^,[30]^,[31] providing a good reference to test the iTAG system. […]
Figure 1 Design and experimental evaluation of the DCD tags (A) Representation of the experimental pipeline used to evaluate the different DCD constructs. […] Median EGFP intensity was measured in each condition using flow cytometry (3 independent experiments, normalized to the control and represented as mean ± SD). […] Target loss was evaluated either by measuring EGFP median intensity using flow cytometry or western blotting for cMYC protein (3 independent experiments, normalized to the control and represented as mean ± SD). […] Target loss was evaluated as in (D) (3 independent experiments, normalized to the control and represented as mean ± SD). […]

[1] = test system: HMEC, HEK293T, MDA-MB-231, Kelly cells; assay: Cell viability assay (CellTiter-Blue); assay type: cell-based, human; conditions: 5 days treatment
Procedure: By endpoint, CellTiter-Blue reagent (Promega) was added to each well, incubated for 3 h at 37°C and absorbance was measured with a plate reader at 570nm. Average background absorbance value was subtracted from all readings when plotting the viability curve.

Cc1ccc(NC(=O)NCc2ccc3c(c2)CN(C2CCC(=O)NC2=O)C3=O)cc1Cl (centres unmarked) [CC885]
loss of cMYC-EGFP signal (cMYC-EGFP-DCD19): robust loss of cMYC-EGFP signal | IC50 (CRBN/DDB1 complex): 107 nM | Degradation as Log2 FC relative to DMSO (cMYC-EGFP-DCD23): -1.27 Log2 FC | change of EGFP signal (cMYC-EGFP-DCD2): strong decrease in EGFP signal | cellular toxicity [1]: significant cellular toxicity
